What was measured:
[1] = molecular target: T1, human 5HT2C receptor (Homo sapiens, UniProt P28335); experiment: Intracellular IP3 accumulation assay (IP Accumulation Assay); type: cell-based; settings: HEK293 cells transfected with human 5HT2C receptor cDNA
T1 construct: expressed in transfected cells; host or cells: HEK293
T1 sequence (P28335 33-458): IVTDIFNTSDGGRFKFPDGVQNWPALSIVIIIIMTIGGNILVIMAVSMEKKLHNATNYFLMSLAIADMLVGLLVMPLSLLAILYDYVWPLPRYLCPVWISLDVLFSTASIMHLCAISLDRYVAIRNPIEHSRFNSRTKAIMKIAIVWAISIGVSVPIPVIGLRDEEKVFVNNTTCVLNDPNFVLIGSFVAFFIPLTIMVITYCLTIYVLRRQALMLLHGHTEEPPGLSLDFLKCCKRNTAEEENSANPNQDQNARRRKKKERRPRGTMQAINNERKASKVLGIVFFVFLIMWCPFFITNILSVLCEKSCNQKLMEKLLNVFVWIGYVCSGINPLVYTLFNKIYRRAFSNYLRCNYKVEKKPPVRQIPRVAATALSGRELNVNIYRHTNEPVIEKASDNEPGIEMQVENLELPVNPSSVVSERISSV
Protocol: HEK293 cells were transfected in 15 cm sterile dishes with or without (control) 16 ug of human 5HT2C receptor cDNA [for example see, Saltzman, A. G., et al. Biochem. Biophys. Res. Commun. 181, 1469-1478 (1991)] using 25 ul of lipofectamine. Cells were then incubated for 3-4 hours at 37° C./5% CO2 and then transfection media was removed and replaced with 100 ul of DMEM. Cells were then plated onto 100 cm sterile dishes. The next day cells were plated into 96 well PDL microtiter plates at a density of 55K/0.2 ml. Six hours latter, media was exchanged with [^3H]inositol (0.25 uCi/well) in inositol free DMEM and plates were incubated at 37° C./5% CO2 overnight. The next day, wells were aspirated and 200 ul of DMEM containing test compound, 10 uM pargyline, and 10 mM LiCl was added to appropriate wells. Plates were then incubated at 37° C./5% CO2 for three hours followed aspiration and by addition of fresh ice cold stop solution (1M KOH, 19 mM Na-borate, 3.8 mM EDTA) to each well. Plates were kept on ice for 5-10 min and the wells were neutralized by addition of 200 ul of fresh ice cold neutralization solution (7.5% HCl). Plates were then frozen until further processing is desired. The lysate was then transferred into 1.5 ml Eppendorf tubes and 1 ml of chloroform/methanol (1:2) was added/tube. […]

[2] = molecular target: 5HT2A receptor (Homo sapiens, UniProt P28223); experiment: EC50 against the 5HT2A receptor (selectivity); type: cell-based
Chain of 5HT2A receptor (P28223 whole entry): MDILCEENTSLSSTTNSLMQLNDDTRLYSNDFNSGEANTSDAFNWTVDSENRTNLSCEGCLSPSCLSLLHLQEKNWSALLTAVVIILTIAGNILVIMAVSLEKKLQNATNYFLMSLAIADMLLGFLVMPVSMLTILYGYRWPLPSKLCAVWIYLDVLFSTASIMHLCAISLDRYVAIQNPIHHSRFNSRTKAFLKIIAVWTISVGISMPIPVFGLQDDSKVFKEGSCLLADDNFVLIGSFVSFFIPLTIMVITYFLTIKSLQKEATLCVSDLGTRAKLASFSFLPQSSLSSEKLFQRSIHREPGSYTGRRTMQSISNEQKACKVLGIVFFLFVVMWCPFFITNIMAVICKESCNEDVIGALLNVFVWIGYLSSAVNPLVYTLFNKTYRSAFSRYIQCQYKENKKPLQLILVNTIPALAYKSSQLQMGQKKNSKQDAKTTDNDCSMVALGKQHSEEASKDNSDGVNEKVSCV

[3] = molecular target: 5HT2B receptor (Homo sapiens, UniProt P41595); experiment: Activity against the 5HT2B receptor (selectivity); type: cell-based
Chain of 5HT2B receptor (P41595 whole entry): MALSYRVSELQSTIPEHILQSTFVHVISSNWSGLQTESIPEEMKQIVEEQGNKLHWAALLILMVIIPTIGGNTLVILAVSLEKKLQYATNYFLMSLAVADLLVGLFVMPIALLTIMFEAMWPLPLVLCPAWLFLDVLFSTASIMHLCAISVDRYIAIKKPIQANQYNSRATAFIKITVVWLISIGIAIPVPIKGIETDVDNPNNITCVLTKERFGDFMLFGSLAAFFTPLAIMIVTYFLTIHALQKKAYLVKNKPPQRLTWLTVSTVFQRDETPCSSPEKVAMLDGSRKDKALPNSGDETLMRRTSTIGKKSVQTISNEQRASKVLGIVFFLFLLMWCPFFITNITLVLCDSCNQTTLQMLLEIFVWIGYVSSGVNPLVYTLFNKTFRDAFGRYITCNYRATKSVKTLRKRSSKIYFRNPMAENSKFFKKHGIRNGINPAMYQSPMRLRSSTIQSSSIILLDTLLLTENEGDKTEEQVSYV

[4] = test system: basal food intake; experiment: Inhibition of basal food intake in rats; type: in vivo, Male Sprague-Dawley rats; settings: p.o.; for ED50: Rattus norvegicus, po
Protocol: Male Sprague-Dawley rats (225-325 g) were accustomed to a reverse day/night schedule (lights on 6:30 pm to 10:30 am) for at least 10 days prior to testing. On the test day, the animals were weighed and placed into individual cages (no bedding) at 9:00 am with free access to water. At 10:00 am, animals were injected with test compound or vehicle (2 ml/kg, p.o.), with treatment groups counter-balanced according to animal weights. Immediately upon lights out at 10:30 am, each animal was presented with a pre-weighed amount of food in a dish. Food consumption over different time points was then determined by weighing the food cup at 2, 4, 6 and 22 hrs after the food was presented. Thus, food consumption was measured at 2.5, 4.5, 6.5, and 22.5 hrs post-injection.

Row | Compound | EC50 [1] [nM] | EC50 [2] [nM] | activity against the 5HT2B receptor [3] | ED50 ([4]; 2 h, 2 hours after food presentation) [µmol/kg] | ED50 ([4]; 4 h, 4 hours after food presentation) [µmol/kg] | ED50 ([4]; 6 h, 6 hours after food presentation) [µmol/kg] | ED50 ([4]; 22 h, 22 hours after food presentation) [µmol/kg] | effect on food intake relative to vehicle-treated controls ([4]; all doses, first 4 hr after food presentation) | duration of food intake inhibition ([4]; highest dose tested)
1 | C[C@@H]1CNCCN1c1cccc(Cl)c1F [Compound 23, (R)-1-(3-Chloro-2-fluoro-phenyl)-2-methyl-piperazine] | 7.4 | 44 | essentially inactive | – | – | – | – | – | –
2 | C[C@@H]1CNCCN1c1cc(Cl)ccc1F [Compound 44, (R)-1-(5-Chloro-2-fluoro-phenyl)-2-methyl-piperazine] | 8 | 529 | essentially inactive | 33 | 58 | 97 | 441 | inhibited food intake relative to vehicle-treated controls | maintained to 22 hrs after food presentation
